Patent US4413007A, “Pesticidal symmetrical N-substituted bis-carbamoyloximino disulfide compounds” (priority 1978, dated 1983)

What was measured:
[1] = tested on: two-spotted mite (Tetranychus urticae Koch); test: Mite Foliage Spray Test; type: in vivo; design: key: A: excellent control; B: partial control; C: no control; conditions: 500 ppm, six days
Experimental: (§1) Suspensions of the test compounds were prepared by dissolving one gram of compound in 50 milliliters of acetone in which had been dissolved 0.1 gram (10 percent of the weight of compound) of an alkylphenoxy polyethoxyethanol surfactant, as an emulsifying or dispersing agent. The resulting solution was mixed into 150 milliliters of water to give roughly 200 milliliters of a suspension containing the compound in finely divided form. The thus-prepared stock suspension contained 0.5 percent by weight of compound. The test concentrations in parts per million by weight employed in the tests described hereinbelow were obtained by appropriate dilutions of the stock suspension with water. The test procedures were as follows:
Adults and nymphal stages of the two-spotted mite (Tetranychus urticae Koch), reared on Tendergreen bean plants at 80±5 percent relative humidity, were the test organisms. Infested leaves from a stock culture were placed on the primary leaves of two bean plants six to eight inches in height, growing in a two-and-a-half inch clay pot. 150-200 Mites, a sufficient number for testing, transferred from the excised leaves to the fresh plants in a period of twenty four hours. Following the twenty four hour transfer period, the excised leaves were removed from the infested plants. The test compounds were formulated by diluting the stock suspension with water to give a suspension containing 500 parts of test compound per million parts of final formulation. The potted plants (one pot per compound) were placed on a revolving turntable and sprayed with 100-110 milliliters of test compound formulation by use of a DeVilbiss spray gun set at 40 psig. air pressure. This application, which lasted 25 seconds, was sufficient to wet the plants to run-off. As a control, 100-110 milliliters of a water solution containing acetone and emulsifier in the same concentrations as the test compound formulation, but containing no test compound, were also sprayed on infested plants. The sprayed plants were held at 80±5 percent relative humidity for six days, after which a mortality count of motile forms was made. Microscopic examination for motile forms was made on the leaves of the test plants. Any individual which was capable of locomotion upon prodding was considered living.
(§2) In these tests the pesticidal activity of the compounds against aphid, mite, Southern Armyworm, Bean Beetle and house fly was rated as follows: […]

[2] = Peroral toxicity to mammals (rat); conditions: in vivo, po, 50 percent mortality, read-out: A.O. Rat (LD50)
Experimental: Certain of these compositions were also evaluated to determine their peroral toxicity to mammals. The animal selected for this experiment was the rat. The test results obtained are expressed in terms of the number of milligrams of compositions per kilogram of weight of the animal required to achieve a mortality rate of 50 percent (LD50).

[3] = tested on: house flies (Musca domestica, L.); test: Fly Bait Test; type: in vivo; design: key: A: excellent control; B: partial control; C: no control; conditions: 500 ppm in sugar solution, twenty four hours
Experimental: as §1
Four to six day old adult house flies (Musca domestica, L.) reared according to the specifications of the Chemical Specialities Manufacturing Association (Blue Book, McNair-Dorland Co., N.Y. 1954; pages 243-244, 261) under controlled conditions of 80±5° F. and 50±5 percent relative humidity, were the test insects. The flies were immobilized by anesthetizing with carbon dioxide and twenty five immobilized individuals,males and females, were transferred to a cage consisting of a standard food strainer about five inches in diameter which was inverted over a wrapping-paper-covered surface. The test compounds were formulated by diluting the stock suspension with a 10 percent (by weight) sugar solution to give a suspension containing 500 parts of test compound per million parts of final formulation, by weight. Ten milliliters of the test formulation were added to a souffle cup containing a one-inch square of an absorbent cotton pad. This bait cup was introduced and centered on the blotting paper under the food strainer prior to admitting the anesthetized flies. The caged flies were allowed to feed on the bait for twenty four hours, at a temperature of 80±5° F. and the relative humidity of 50±5 percent.
as §2

[4] = tested on: bean aphid (Aphis fabae Scop.); test: Bean Aphid Foliage Spray Test; type: in vivo; design: key: A: excellent control; B: partial control; C: no control; conditions: 500 ppm, 24 hour holding period
Experimental: as §1
Adults and nymphal stages of the bean aphid (Aphis fabae Scop.) reared on potted dwarf nasturtium plants at 65°-70° F. and 50-70 percent relative humidity, constituted the test insects. For testing purposes, the number of aphids per pot was standardized to 100-150 by trimming plants containing excess aphids.
The test compounds were formulated by diluting the stock suspension with water to give a suspension containing 500 parts of test compound per million parts of final formulation.
The potted plants (one pot per compound tested) infested with 100-150 aphids, were placed on a revolving turntable and sprayed with 100-110 milliliters of test compound formulation by use of a DeVilbiss spray gun set at 40 psig. air pressure. This application, which tested 25 seconds, was sufficient to wet the plants to run-off. As a control, 100-110 milliliters of a water-acetone-emulsifier solution containing no test compound were also sprayed on infested plants. After spraying, the pots were placed on their sides on a sheet of white standard mimeograph paper which had been previously ruled to facilitate counting. Temperature and humidity in the test room during the 24 hour holding period were 65°-70° F. and 50-70 percent, respectively. Aphids which fell onto the paper and were unable to remain standing after being uprighted were considered dead. Aphids remaining on the plants were observed closely for movement and those which were unable to move the length of the body upon stimulation by prodding were considered dead. Percent mortality was recorded for various concentration levels.
as §2

[5] = tested on: Mexican bean beetle (Epilachna varivestis, Muls.); test: Mexican Bean Beetle Leaf Spray Test; type: in vivo; design: key: A: excellent control; B: partial control; C: no control; conditions: 500 ppm, three days
Experimental: as §1
Fourth instar larvae of the Mexican bean beetle (Epilachna varivestis, Muls.), reared on Tendergreen bean plants at a temperature of 80±5° F. and 50±5 percent relative humidity, were the test insects.
The test compounds were formulated by diluting the stock suspension with water to give a suspension containing 500 parts of test compound per million parts of final formulation. Potted Tendergreen bean plants of standard height and age were placed on a revolving turntable and sprayed with 100-110 milliliters of test compound formulation by use of a DeVilbiss spray gun set at 10 psig air pressure. The application, which lasted 25 seconds, was sufficient to wet plants to run-off. As a control, 100-110 milliliters of a water-acetone-emulsifier solution containing no test compound were also sprayed on infested plants. When dry, the paired leaves were separated and each was placed in a 9 centimeter Petri dish lined with moistened filter paper. Five randomly selected larvae were introduced into each dish, and the dishes were closed. The closed dishes were labeled and held at a temperature of 80±5° F. for three days. Although the larvae could easily consume the leaf within 24 to 48 hours, no more food was added. Larvae which were unable to move the length of the body, even upon stimulation, were considered dead.
as §2

Row | SMILES | 2-Spotted Mite control rating [1] | LD50 [2] [mg/kg] | House-Fly control rating [3] | Bean Aphid control rating [4] | Mexican Bean Beetle control rating [5]
1 | CN(SSN(C)C(=O)ON=C1CSCCS1)C(=O)ON=C1CSCCS1 [N,N'-Bis-[1,4-Dithiane-2-O-(N-methylcarbamoyl)oximino]disulfide] | A | 160 | A | A | A
2 | CC(=NOC(=O)N(C)SSN(C)C(=O)ON=C(C)SCCC#N)SCCC#N [N,N'-Bis-[1-(2-Cyanoethylthio)acetaldehyde O-(N-methylcarbamoyl)oxime]disulfide] | A | 80 | A | A | A
3 | CSC(C)=NOC(=O)N(C)SSN(C)C(=O)ON=C(C)SC [N,N'-Bis-[1-Methylthioacetaldehyde O-(N-methylcarbamoyl)oxime]disulfide] | C | 190 | A | A | A
